For orientation: IC50 means the midpoint of a concentration-inhibition curve.

Results on six compounds are retold here after US7553864B2, “Compounds for the treatment of inflammatory disorders and microbial diseases” (Schering Corporation, priority 2005, dated 2009).

Like-named read-outs stand apart in the source and are kept apart here.

The target in the assay is T1, ADMP (ADAMTS-4-5) (Homo sapiens, UniProt O75173).
T1 construct: purchased Calbiochem PF113
T1 sequence (O75173 213-837): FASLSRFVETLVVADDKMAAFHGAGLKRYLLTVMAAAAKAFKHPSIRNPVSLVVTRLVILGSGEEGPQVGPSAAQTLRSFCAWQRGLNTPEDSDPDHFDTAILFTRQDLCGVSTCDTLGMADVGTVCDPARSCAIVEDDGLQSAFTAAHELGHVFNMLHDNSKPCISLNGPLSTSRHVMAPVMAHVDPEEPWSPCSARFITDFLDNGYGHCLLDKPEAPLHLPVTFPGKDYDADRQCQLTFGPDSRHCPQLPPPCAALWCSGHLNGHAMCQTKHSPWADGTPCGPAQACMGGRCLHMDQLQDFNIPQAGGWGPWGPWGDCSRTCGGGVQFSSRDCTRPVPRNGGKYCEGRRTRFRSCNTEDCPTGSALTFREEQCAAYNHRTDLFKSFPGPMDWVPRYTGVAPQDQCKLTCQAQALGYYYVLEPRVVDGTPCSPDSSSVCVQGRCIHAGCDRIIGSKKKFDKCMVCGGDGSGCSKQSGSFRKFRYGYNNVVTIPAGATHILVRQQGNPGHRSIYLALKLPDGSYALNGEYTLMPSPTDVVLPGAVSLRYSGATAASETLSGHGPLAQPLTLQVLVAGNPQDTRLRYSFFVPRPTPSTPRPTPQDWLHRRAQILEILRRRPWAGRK
Briefly: ADMP activity assay (procedures of WO00/05256). It counts as biochemical. An excerpt:
The procedures of International Patent Publication WO00/05256 (published Feb. 3, 2000) were followed for detection of ADMP Activity and for measuring the IC50 of the compounds of the present invention. This was indicative of activity against a desintgrin and metallopropeinase thrombo spondin 4 and 5 (ADAMTS-4-5).
The enzyme was purchased commercially from Calbiochem (Cat# PF113) and the peptide substrate described in the patent was custom-ordered from AnaSpec.

The mark [1] stands for this setting: read-out: IC50 rating (ADMP inhibitory activity).

`O=C(NCc1ccc(C(F)(F)F)cc1)[C@H](O)[C@@H](O)C(=O)N1CCc2ccccc2C1` [Compound 180]: the IC50 under setting [1] lay in the range of 250 to 1000 nM.

As for `CN(CCc1ccccn1)C(=O)[C@H](O)[C@@H](O)C(=O)NCc1ccc(Cl)cc1` [Compound 113], the IC50 under setting [1] was in the range of 250 to 1000 nM.

`C[C@H](NC(=O)[C@H](O)[C@@H](O)C(=O)N1CCC2(CCCNC2)CC1)c1ccc(Br)cc1` [Compound 158]: under setting [1], the IC50 is > 5000 nM.

Compound `COc1ccc(CNC(=O)[C@H](O)[C@@H](O)C(=O)N2CCC(C(C)=O)(c3ccccc3)CC2)cc1` [Compound 108] had an IC50 of 250 to 1000 nM.

As to `N[C@@H]1CCN(C(=O)[C@H](O)[C@@H](O)C(=O)NCc2ccc(C(F)(F)F)cc2)C1` [Compound 123], the IC50 under setting [1] fell in the range of 1000 to 5000 nM.

As to `C[C@H](NC(=O)C(O)C(O)C(=O)N1CCc2ccccc2C1)c1ccc(C(F)(F)F)cc1F` (stereo partly drawn) [Compound 220], under setting [1], the IC50 is > 5000 nM.
